Reference: paper PMC7619001, “Structural Basis of Bifunctional CTP/dCTP Synthase” (Journal of molecular biology, 2024)
Values belong to the compound of their own block, whether it stands above or below them.

What was measured:
[1] = biological target: T1, CTP synthase (CTPS) (Drosophila melanogaster, UniProt Q9VUL1); assay: cryo-EM structure ([…] Å), reaction intermediate; type: binding
T1 construct: full-length, C-terminal 6xHis-tag
T1 sequence (Q9VUL1 1-627): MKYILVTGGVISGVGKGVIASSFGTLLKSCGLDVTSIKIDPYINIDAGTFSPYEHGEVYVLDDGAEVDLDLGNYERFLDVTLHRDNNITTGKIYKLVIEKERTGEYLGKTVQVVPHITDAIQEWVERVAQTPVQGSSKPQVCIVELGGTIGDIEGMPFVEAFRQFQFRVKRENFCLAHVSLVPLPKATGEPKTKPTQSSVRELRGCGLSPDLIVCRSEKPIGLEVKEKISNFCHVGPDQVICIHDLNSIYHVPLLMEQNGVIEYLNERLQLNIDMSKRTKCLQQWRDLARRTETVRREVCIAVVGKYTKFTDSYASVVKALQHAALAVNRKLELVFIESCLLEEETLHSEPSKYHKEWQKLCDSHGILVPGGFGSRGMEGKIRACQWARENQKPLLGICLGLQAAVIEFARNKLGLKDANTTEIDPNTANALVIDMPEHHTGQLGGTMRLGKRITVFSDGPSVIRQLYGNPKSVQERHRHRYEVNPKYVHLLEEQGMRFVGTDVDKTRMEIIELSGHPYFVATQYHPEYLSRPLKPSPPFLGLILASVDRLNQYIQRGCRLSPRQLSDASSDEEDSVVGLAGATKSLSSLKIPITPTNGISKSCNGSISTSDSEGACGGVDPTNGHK

[2] = biological target: T1, CTP synthase (CTPS); assay: enzyme kinetics at […] nm, Hill fit (KA […]); type: biochemical
[3] = biological target: T1, CTP synthase (CTPS); assay: cryo-EM structure ([…] Å); type: binding
[4] = biological target: T1, CTP synthase (CTPS); assay: activation kinetics (KA = dissociation constant of the E·GTP complex); type: biochemical
[5] = biological target: T1, CTP synthase (CTPS); assay: enzyme kinetics at […] nm, Hill fit (KA […]); type: biochemical; remark: listed apart in the source
[6] = biological target: T1, CTP synthase (CTPS); assay: enzyme kinetics at […] nm, Hill fit (KA […]); type: biochemical; remark: listed apart in the source
[7] = biological target: T1, CTP synthase (CTPS); assay: enzyme activity abolished at […]; filament formation by negative-stain EM; type: biochemical
[8] = biological target: T1, CTP synthase (CTPS); assay: cryo-EM structure; activation kinetics (KA = dissociation constant of the enzyme-regulator complex); type: biochemical
Excerpt: cryo-EM structure; activation kinetics (KA = dissociation constant of the enzyme-regulator complex) on CTP synthase (CTPS) | we observed a clear electron density of dGTP

[9] = biological target: T1, CTP synthase (CTPS); assay: enzyme kinetics at […] nm, Hill fit (KA […]); type: biochemical; remark: listed apart in the source

Structure (SMILES): O=c1nc(OP(=O)(O)O)ccn1[C@H]1C[C@H](O)[C@@H](COP(=O)(O)OP(=O)(O)OP(=O)(O)O)O1 [4Pi-dUTP]
cryo-EM structure (2.7 Å), reaction intermediate [1]: our electron density map shows that dUTP has been catalyzed by CTPS to 4Pi-dUTP and stabilized through various interactions

Structure (SMILES): Nc1ncnc2c1ncn2[C@@H]1O[C@H](COP(=O)(O)OP(=O)(O)OP(=O)(O)O)[C@@H](O)[C@H]1O [ATP]
Kd [2]: 60 µM

Structure (SMILES): [N-]=[N+]=CC(=O)CC[C@H](N)C(=O)O [DON, 6-diazo-L-noreleucine]
cryo-EM structure (2.7 Å) [3]: The electron density of the covalent inhibitor DON was observed in the binding pocket of the GAT domain

Kd [4]: 51.2 µM
Structure (SMILES): Nc1nc2c(ncn2[C@@H]2O[C@H](COP(=O)(O)OP(=O)(O)OP(=O)(O)O)[C@@H](O)[C@H]2O)c(=O)[nH]1 [GTP]

Kd [5]: 50 ± 40 µM
Structure (SMILES): O=c1ccn([C@@H]2O[C@H](COP(=O)(O)OP(=O)(O)OP(=O)(O)O)[C@@H](O)[C@H]2O)c(=O)[nH]1 [UTP]

cryo-EM structure (2.7 Å) [3]: dATP has been converted to dADP by CTPS
Structure (SMILES): Nc1ncnc2c1ncn2[C@H]1C[C@H](O)[C@@H](COP(=O)(O)OP(=O)(O)O)O1 [dADP]

Kd [6]: 160 ± 80 µM
Structure (SMILES): Nc1ncnc2c1ncn2[C@H]1C[C@H](O)[C@@H](COP(=O)(O)OP(=O)(O)OP(=O)(O)O)O1 [dATP]

Structure (SMILES): Nc1ccn([C@H]2C[C@H](O)[C@@H](COP(=O)(O)OP(=O)(O)OP(=O)(O)O)O2)c(=O)n1 [dCTP]
enzyme activity abolished at 1 mM; filament formation by negative-stain EM [7]: This indicates that both CTP and dCTP have strong inhibition effects on CTPS activity.

Kd [8]: 523 ± 312 µM
Structure (SMILES): Nc1nc2c(ncn2[C@H]2C[C@H](O)[C@@H](COP(=O)(O)OP(=O)(O)OP(=O)(O)O)O2)c(=O)[nH]1 [dGTP]

Kd [9]: 280 ± 70 µM
Structure (SMILES): O=c1ccn([C@H]2C[C@H](O)[C@@H](COP(=O)(O)OP(=O)(O)OP(=O)(O)O)O2)c(=O)[nH]1 [dUTP]
